In PubChem BioAssay (NCI) one finds TGI data, which are given here for two molecules.

SMILES strings stand for the structures.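 Grown in 96-well plates, cells were treated for 48 hours with each compound at five concentrations. Insufficient inhibition: endpoint recorded as highest concentration tested. The concentration for full growth arrest is given as TGI.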

Among the test systems are HS 578T breast; PC-3 prostate; A549 NSCLC; HCT-15 colon; COLO 205 colon; BT-549 breast; SF-539 CNS; HCC-2998 colon; SK-MEL-5 melanoma; NCI/ADR-RES ovarian.
Holding throughout (test): DTP human tumour cell line panel, 48 h

Consider `CCC(CCCN)Nc1cc(OC)cc2cccnc12` (stereo not given), for which the TGI in the assay on HS 578T breast, with PC-3 prostate, in the assay with A549 NSCLC, in the assay on HCT-15 colon, with COLO 205 colon and in the assay with BT-549 breast was greater than 100 µM in each case. For the same molecule, the TGI – broadly, the concentration at which net growth stops – in the assay with SF-539 CNS was greater than 100 µM; in the assay with HCC-2998 colon, 52.7 µM; in the assay on SK-MEL-5 melanoma it was greater than 100 µM; in the assay with NCI/ADR-RES ovarian, greater than 100 µM.
Take `CC1=NOC2(C1)/C(=N/O)CCC/C2=N\O` (stereo not given): the concentration for total growth inhibition (TGI) in the assay on HS 578T breast, with PC-3 prostate, with A549 NSCLC, in the assay with HCT-15 colon, with COLO 205 colon and in the assay with BT-549 breast was greater than 100 µM each time. Besides, the TGI in the assay with SF-539 CNS, with HCC-2998 colon, with SK-MEL-5 melanoma and in the assay with NCI/ADR-RES ovarian was greater than 100 µM in each case.
